Experiments:
LOX IMVI = assay: Growth inhibition of human LOX IMVI cells at 10 uM relative to control; format: functional; details: read-out: GI
MDA-MB-468 = assay: Growth inhibition of human MDA-MB-468 cells at 10 uM relative to control; format: functional; details: read-out: GI
T47D = assay: Growth inhibition of human T47D cells at 10 uM relative to control; format: functional; details: read-out: GI
CCRF-CEM = assay: Growth inhibition of human CCRF-CEM cells at 10 uM relative to control; format: functional; details: read-out: GI
HL-60(TB) = assay: Growth inhibition of human HL-60(TB) cells at 10 uM relative to control; format: functional; details: read-out: GI
K562 = assay: Growth inhibition of human K562 cells at 10 uM relative to control; format: functional; details: read-out: GI
MOLT-4 = assay: Growth inhibition of human MOLT-4 cells at 10 uM relative to control; format: functional; details: read-out: GI
RPMI-8226 = assay: Growth inhibition of human RPMI-8226 cells at 10 uM relative to control; format: functional; details: read-out: GI
SR = assay: Growth inhibition of human SR cells at 10 uM relative to control; format: functional; details: read-out: GI
A549 = assay: Growth inhibition of human A549 cells at 10 uM relative to control; format: functional; details: read-out: GI
HOP-62 = assay: Growth inhibition of human HOP-62 cells at 10 uM relative to control; format: functional; details: read-out: GI
NCI-H226 = assay: Growth inhibition of human NCI-H226 cells at 10 uM relative to control; format: functional; details: read-out: GI
NCI-H23 = assay: Growth inhibition of human NCI-H23 cells at 10 uM relative to control; format: functional; details: read-out: GI
NCI-H322M = assay: Growth inhibition of human NCI-H322M cells at 10 uM relative to control; format: functional; details: read-out: GI
NCI-H460 = assay: Growth inhibition of human NCI-H460 cells at 10 uM relative to control; format: functional; details: read-out: GI
NCI-H522 = assay: Growth inhibition of human NCI-H522 cells at 10 uM relative to control; format: functional; details: read-out: GI
SW-620 = assay: Growth inhibition of human SW-620 cells at 10 uM relative to control; format: functional; details: read-out: GI
COLO 205 = assay: Growth inhibition of human COLO 205 cells at 10 uM relative to control; format: functional; details: read-out: GI
HCC 2998 = assay: Growth inhibition of human HCC 2998 cells at 10 uM relative to control; format: functional; details: read-out: GI
HCT-116 = assay: Growth inhibition of human HCT-116 cells at 10 uM relative to control; format: functional; details: read-out: GI
HCT-15 = assay: Growth inhibition of human HCT-15 cells at 10 uM relative to control; format: functional; details: read-out: GI
HT-29 = assay: Growth inhibition of human HT-29 cells at 10 uM relative to control; format: functional; details: read-out: GI
KM12 = assay: Growth inhibition of human KM12 cells at 10 uM relative to control; format: functional; details: read-out: GI
SF-268 = assay: Growth inhibition of human SF-268 cells at 10 uM relative to control; format: functional; details: read-out: GI
SF-295 = assay: Growth inhibition of human SF-295 cells at 10 uM relative to control; format: functional; details: read-out: GI
SF-539 = assay: Growth inhibition of human SF-539 cells at 10 uM relative to control; format: functional; details: read-out: GI
SNB-19 = assay: Growth inhibition of human SNB-19 cells at 10 uM relative to control; format: functional; details: read-out: GI
SNB-75 = assay: Growth inhibition of human SNB-75 cells at 10 uM relative to control; format: functional; details: read-out: GI
U-251 = assay: Growth inhibition of human U-251 cells at 10 uM relative to control; format: functional; details: read-out: GI
Malme-3M = assay: Growth inhibition of human Malme-3M cells at 10 uM relative to control; format: functional; details: read-out: GI
M14 = assay: Growth inhibition of human M14 cells at 10 uM relative to control; format: functional; details: read-out: GI
MDA-MB-435 = assay: Growth inhibition of human MDA-MB-435 cells at 10 uM relative to control; format: functional; details: read-out: GI
SK-MEL-2 = assay: Growth inhibition of human SK-MEL-2 cells at 10 uM relative to control; format: functional; details: read-out: GI
SK-MEL-28 = assay: Growth inhibition of human SK-MEL-28 cells at 10 uM relative to control; format: functional; details: read-out: GI
SK-MEL-5 = assay: Growth inhibition of human SK-MEL-5 cells at 10 uM relative to control; format: functional; details: read-out: GI
UACC-257 = assay: Growth inhibition of human UACC-257 cells at 10 uM relative to control; format: functional; details: read-out: GI
UACC-62 = assay: Growth inhibition of human UACC-62 cells at 10 uM relative to control; format: functional; details: read-out: GI
IGROV-1 = assay: Growth inhibition of human IGROV-1 cells at 10 uM relative to control; format: functional; details: read-out: GI
OVCAR-4 = assay: Growth inhibition of human OVCAR-4 cells at 10 uM relative to control; format: functional; details: read-out: GI
OVCAR-5 = assay: Growth inhibition of human OVCAR-5 cells at 10 uM relative to control; format: functional; details: read-out: GI
OVCAR-8 = assay: Growth inhibition of human OVCAR-8 cells at 10 uM relative to control; format: functional; details: read-out: GI
NCI/ADR-RES = assay: Growth inhibition of human NCI/ADR-RES cells at 10 uM relative to control; format: functional; details: read-out: GI
SK-OV-3 = assay: Growth inhibition of human SK-OV-3 cells at 10 uM relative to control; format: functional; details: read-out: GI
786-0 = assay: Growth inhibition of human 786-0 cells at 10 uM relative to control; format: functional; details: read-out: GI
A498 = assay: Growth inhibition of human A498 cells at 10 uM relative to control; format: functional; details: read-out: GI
ACHN = assay: Growth inhibition of human ACHN cells at 10 uM relative to control; format: functional; details: read-out: GI
CAKI-1 = assay: Growth inhibition of human CAKI-1 cells at 10 uM relative to control; format: functional; details: read-out: GI
RXF 393 = assay: Growth inhibition of human RXF 393 cells at 10 uM relative to control; format: functional; details: read-out: GI
SN12C = assay: Growth inhibition of human SN12C cells at 10 uM relative to control; format: functional; details: read-out: GI
TK-10 = assay: Growth inhibition of human TK-10 cells at 10 uM relative to control; format: functional; details: read-out: GI
UO-31 = assay: Growth inhibition of human UO-31 cells at 10 uM relative to control; format: functional; details: read-out: GI
PC-3 = assay: Growth inhibition of human PC-3 cells at 10 uM relative to control; format: functional; details: read-out: GI
DU-145 = assay: Growth inhibition of human DU-145 cells at 10 uM relative to control; format: functional; details: read-out: GI
MCF7 = assay: Growth inhibition of human MCF7 cells at 10 uM relative to control; format: functional; details: read-out: GI
MDA-MB-231 = assay: Growth inhibition of human MDA-MB-231 cells at 10 uM relative to control; format: functional; details: read-out: GI
Hs-578T = assay: Growth inhibition of human Hs-578T cells at 10 uM relative to control; format: functional; details: read-out: GI
BT-549 = assay: Growth inhibition of human BT-549 cells at 10 uM relative to control; format: functional; details: read-out: GI
DNA = assay: Displacement of methyl green from DNA (unknown origin) assessed as DNA intercalation after 24 hrs by colorimetric assay; format: nucleic-acid assay

CCOC(=O)C1=CSC2=NC(/C=C/c3ccc(Cl)cc3)=CC(c3ccc(Cl)cc3)N12 (stereo not drawn)
< 10%: inhibition of growth at 10 µM (LOX IMVI) | inhibition of growth at 10 µM (MDA-MB-468) | inhibition of growth at 10 µM (T47D) | inhibition of growth at 10 µM (CCRF-CEM) | inhibition of growth at 10 µM (HL-60(TB)) | inhibition of growth at 10 µM (RPMI-8226) | inhibition of growth at 10 µM (SR) | inhibition of growth at 10 µM (A549) | inhibition of growth at 10 µM (HOP-62) | inhibition of growth at 10 µM (NCI-H226) | inhibition of growth at 10 µM (NCI-H23) | inhibition of growth at 10 µM (NCI-H322M) | inhibition of growth at 10 µM (NCI-H460) | inhibition of growth at 10 µM (NCI-H522) | inhibition of growth at 10 µM (SW-620) | inhibition of growth at 10 µM (COLO 205) | inhibition of growth at 10 µM (HCC 2998) | inhibition of growth at 10 µM (HCT-116) | inhibition of growth at 10 µM (HCT-15) | inhibition of growth at 10 µM (HT-29) | inhibition of growth at 10 µM (KM12) | inhibition of growth at 10 µM (SF-268) | inhibition of growth at 10 µM (SF-295) | inhibition of growth at 10 µM (SF-539) | inhibition of growth at 10 µM (SNB-19) | inhibition of growth at 10 µM (SNB-75) | inhibition of growth at 10 µM (Malme-3M) | inhibition of growth at 10 µM (M14) | inhibition of growth at 10 µM (MDA-MB-435) | inhibition of growth at 10 µM (SK-MEL-2) | inhibition of growth at 10 µM (SK-MEL-28) | inhibition of growth at 10 µM (SK-MEL-5) | inhibition of growth at 10 µM (UACC-257) | inhibition of growth at 10 µM (UACC-62) | inhibition of growth at 10 µM (IGROV-1) | inhibition of growth at 10 µM (OVCAR-4) | inhibition of growth at 10 µM (OVCAR-5) | inhibition of growth at 10 µM (OVCAR-8) | inhibition of growth at 10 µM (NCI/ADR-RES) | inhibition of growth at 10 µM (SK-OV-3) | inhibition of growth at 10 µM (786-0) | inhibition of growth at 10 µM (ACHN) | inhibition of growth at 10 µM (CAKI-1) | inhibition of growth at 10 µM (RXF 393) | inhibition of growth at 10 µM (SN12C) | inhibition of growth at 10 µM (TK-10) | inhibition of growth at 10 µM (UO-31) | inhibition of growth at 10 µM (PC-3) | inhibition of growth at 10 µM (DU-145) | inhibition of growth at 10 µM (MCF7) | inhibition of growth at 10 µM (MDA-MB-231) | inhibition of growth at 10 µM (Hs-578T) | inhibition of growth at 10 µM (BT-549)
79.28 µg/mL: IC50 (DNA)
11.8%: inhibition of growth at 10 µM (A498)
16.7%: inhibition of growth at 10 µM (MOLT-4)
14.6%: inhibition of growth at 10 µM (U-251)
12.4%: inhibition of growth at 10 µM (K562)

Reference: ChEMBL document CHEMBL4665869, “New thiazolopyrimidine as anticancer agents: Synthesis, biological evaluation, DNA binding, molecular modeling and ADMET study” (Bioorg Med Chem Lett, 2020)
